Experimental data: PubChem BioAssay AID256 (DTP/NCI, 2004)
Where “and” joins values, the source holds several entries; their conditions need not be identical. Identical values can stand only once. Toxic doses and inconclusive results are not listed. How the source made its calls: active means survival T/C of 150% or more; inactive means T/C below 125% in these data.

Test system: CD2F1 mice, L1210 leukemia ip, survival T/C
Test: NCI In Vivo Anticancer Drug Screen. Data for tumor model L1210 Leukemia (intraperitoneal) in CD2F1 (CDF1) mice
Conditions: higher = longer survival
Outline: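 Compound-dosed mice with transplantable tumor versus matched vehicle controls; endpoint ratio T/C reported.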

[1] = endpoint: mean survival time, dose: 100.0 mg/kg/injection, schedule: Q04DX003 (ip), vehicle: saline with Tween-80
[2] = endpoint: mean survival time, dose: 200.0 mg/kg/injection, schedule: Q04DX003 (ip), vehicle: saline with Tween-80
[3] = endpoint: mean survival time, dose: 100.0 mg/kg/injection, schedule: Q01DX009 (ip), vehicle: saline with Tween-80
[4] = endpoint: mean survival time, dose: 200.0 mg/kg/injection, schedule: Q01DX009 (ip), vehicle: saline with Tween-80
[5] = endpoint: mean survival time, dose: 400.0 mg/kg/injection, schedule: Q01DX009 (ip), vehicle: saline with Tween-80
[6] = endpoint: mean survival time, dose: 400.0 mg/kg/injection, schedule: Q04DX003 (ip), vehicle: saline with Tween-80
[7] = endpoint: mean survival time, dose: 100.0 mg/kg/injection, schedule: Q01DX001 (ip), vehicle: saline
[8] = endpoint: mean survival time, dose: 200.0 mg/kg/injection, schedule: Q01DX001 (ip), vehicle: saline
[9] = endpoint: mean survival time, dose: 400.0 mg/kg/injection, schedule: Q01DX001 (ip), vehicle: saline
[10] = endpoint: mean survival time, dose: 25.0 mg/kg/injection, schedule: Q04DX003 (ip), vehicle: saline with Tween-80
[11] = endpoint: mean survival time, dose: 50.0 mg/kg/injection, schedule: Q04DX003 (ip), vehicle: saline with Tween-80
[12] = endpoint: mean survival time, dose: 100.0 mg/kg/injection, schedule: Q01DX001 (ip), vehicle: saline with Tween-80

Measured: T/C

COc1cccc(C(O)c2ccncc2)c1OC (stereo not given)
inactive: endpoint: mean survival time, dose: 25.0 mg/kg/injection, schedule: Q01DX009 (ip), vehicle: water 96 % of control | endpoint: mean survival time, dose: 50.0 mg/kg/injection, schedule: Q01DX009 (ip), vehicle: water 105 % of control | endpoint: mean survival time, dose: 100.0 mg/kg/injection, schedule: Q01DX009 (ip), vehicle: water 98 % of control | endpoint: mean survival time, dose: 200.0 mg/kg/injection, schedule: Q01DX009 (ip), vehicle: water 93 % of control | endpoint: mean survival time, dose: 400.0 mg/kg/injection, schedule: Q01DX009 (ip), vehicle: water 91 % of control

CCCCC(OC(=O)Nc1cccc2ccccc12)C(C)C (stereo not given)
inactive: [1] 91 % of control | [2] 88 % of control

COc1ccc2oc(-c3ccc(Cl)cc3)c(N3CCN(C)CC3)c2c1
inactive: endpoint: median survival time, dose: 15.0 mg/kg/injection, schedule: Q01DX005 (ip), vehicle: saline 104 % of control | endpoint: median survival time, dose: 30.0 mg/kg/injection, schedule: Q01DX005 (ip), vehicle: saline 103 % of control | endpoint: median survival time, dose: 60.0 mg/kg/injection, schedule: Q01DX005 (ip), vehicle: saline 100 % of control | endpoint: median survival time, dose: 120.0 mg/kg/injection, schedule: Q01DX005 (ip), vehicle: saline 107 % of control | endpoint: median survival time, dose: 240.0 mg/kg/injection, schedule: Q01DX005 (ip), vehicle: saline 119 % of control

CO/N=C/c1ccc([N+](=O)[O-])s1
inactive: endpoint: mean survival time, dose: 50.0 mg/kg/injection, schedule: Q01DX009 (ip), vehicle: saline 116 % of control

COc1ccc(/C=C2\N=C(c3ccccc3)OC2=O)cc1OC
inactive: endpoint: mean survival time, dose: 100.0 mg/kg/injection, schedule: Q01DX009 (ip), vehicle: saline 103 % of control | endpoint: mean survival time, dose: 200.0 mg/kg/injection, schedule: Q01DX009 (ip), vehicle: saline 98 % of control | endpoint: mean survival time, dose: 400.0 mg/kg/injection, schedule: Q01DX009 (ip), vehicle: saline 98 % of control

CC1CC(C)(C)CC2(C1)OCC(CCl)O2 (stereo not given)
inactive: endpoint: mean survival time, dose: 100.0 mg/kg/injection, schedule: Q01DX009 (ip), vehicle: saline sonified 95 % of control | endpoint: mean survival time, dose: 200.0 mg/kg/injection, schedule: Q01DX009 (ip), vehicle: saline sonified 87 % of control | endpoint: mean survival time, dose: 400.0 mg/kg/injection, schedule: Q01DX009 (ip), vehicle: saline sonified 106 % of control

Cn1c(CC(O)c2nc3ccccc3n2C)nc2ccccc21 (stereo not given)
inactive: endpoint: mean survival time, dose: 50.0 mg/kg/injection, schedule: Q01DX009 (ip), vehicle: Klucel (hydroxypropylcellulose) (HPC) 97 % of control | endpoint: mean survival time, dose: 100.0 mg/kg/injection, schedule: Q01DX009 (ip), vehicle: Klucel (hydroxypropylcellulose) (HPC) 101 % of control | endpoint: mean survival time, dose: 200.0 mg/kg/injection, schedule: Q01DX009 (ip), vehicle: Klucel (hydroxypropylcellulose) (HPC) 120 % of control

CC(Oc1ccccc1)C(=O)c1ccccc1 (stereo not given)
inactive: [3] 93 % of control | [1] 97 % of control | [4] 93 % of control | [2] 100 % of control | [5] 96 % of control | [6] 90 % of control

CC(=O)O[C@H]1CC[C@@]2(C)[C@@H](CC[C@@H]3[C@@H]2CC(=O)[C@]2(C)[C@@H]4[C@H](C[C@@H]32)O[C@]2(CC[C@@H](C)CO2)[C@H]4C)C1
inactive: [7] 96 % of control | [8] 101 % of control | [9] 98 % of control

N#CC(C#N)=CN1CCCC1
inactive: endpoint: mean survival time, dose: 5.0 mg/kg/injection, schedule: Q01DX001 (ip), vehicle: saline with Tween-80 100 % of control | endpoint: mean survival time, dose: 10.0 mg/kg/injection, schedule: Q01DX001 (ip), vehicle: saline with Tween-80 102 % of control | endpoint: mean survival time, dose: 20.0 mg/kg/injection, schedule: Q01DX001 (ip), vehicle: saline with Tween-80 93 % of control

COc1ccc(/C(C)=N/N=C(\C)c2ccc(OC)cc2)cc1
inactive: [10] 105 % of control | [11] 102 % of control | [1] 102 % of control

Cc1ccccc1NCc1ccccc1
inactive: endpoint: mean survival time, dose: 100.0 mg/kg/injection, schedule: Q04DX003 (ip), vehicle: other 101 % of control | endpoint: mean survival time, dose: 200.0 mg/kg/injection, schedule: Q04DX003 (ip), vehicle: other 103 % of control | endpoint: mean survival time, dose: 400.0 mg/kg/injection, schedule: Q04DX003 (ip), vehicle: other 100 % of control

CCCCCCCCCCCCCCCCCC[N+]1(CC)CCCCC1
inactive: endpoint: mean survival time, dose: 0.09 mg/kg/injection, schedule: Q01DX009 (ip), vehicle: saline 98 % of control | endpoint: mean survival time, dose: 0.19 mg/kg/injection, schedule: Q01DX009 (ip), vehicle: saline 98 % of control | endpoint: mean survival time, dose: 0.39 mg/kg/injection, schedule: Q01DX009 (ip), vehicle: saline 101 % of control | endpoint: mean survival time, dose: 0.78 mg/kg/injection, schedule: Q01DX009 (ip), vehicle: saline 98 % of control

COc1ccccc1NC(=O)Oc1cccc(OC(=O)c2ccccc2)c1
inactive: endpoint: mean survival time, dose: 100.0 mg/kg/injection, schedule: Q04DX002 (ip), vehicle: saline with Tween-80 96 % of control | endpoint: mean survival time, dose: 200.0 mg/kg/injection, schedule: Q04DX002 (ip), vehicle: saline with Tween-80 103 % of control | endpoint: mean survival time, dose: 400.0 mg/kg/injection, schedule: Q04DX002 (ip), vehicle: saline with Tween-80 88 % of control

NS(=O)(=O)c1ccc(NC(=O)Nc2cccc(F)c2)cc1
inactive: [3] 98 % of control | [4] 106 % of control | [5] 97 % of control

NC(N)=NC(N)=Nc1ccc(Cl)c(Cl)c1
inactive: endpoint: mean survival time, dose: 50.0 mg/kg/injection, schedule: Q01DX001 (ip), vehicle: Klucel (hydroxypropylcellulose) (HPC) 94 % of control | endpoint: mean survival time, dose: 100.0 mg/kg/injection, schedule: Q01DX001 (ip), vehicle: Klucel (hydroxypropylcellulose) (HPC) 105 % of control | endpoint: mean survival time, dose: 150.0 mg/kg/injection, schedule: Q01DX009 (ip), vehicle: saline 108 % of control | endpoint: mean survival time, dose: 200.0 mg/kg/injection, schedule: Q01DX001 (ip), vehicle: Klucel (hydroxypropylcellulose) (HPC) 94 % of control

[Cl][Fe]([Cl])([Cl])[Cl].c1ccc(-c2cc(-c3ccccc3)[o+]c(-c3ccccc3)c2)cc1
inactive: [10] 87 % of control | [11] 87 % of control | [1] 86 % of control and 91 % of control

CC1(C)N=C(N)N=C(N)N1c1ccc(C(=O)Nc2ccc(S(=O)(=O)F)cc2)cc1
inactive: [7] 94 % of control | [8] 97 % of control | [9] 103 % of control

CCOC(OCC)c1nc(N)[nH]c(=O)c1CCCCc1ccccc1
inactive: [1] 87 % of control | [2] 87 % of control | [6] 95 % of control

O=[N+]([O-])c1ccc(N2CCCCC2)c([N+](=O)[O-])c1
inactive: [3] 96 % of control | [4] 98 % of control | [5] 95 % of control

O=C1O/C(=C\c2ccccc2)c2c(-c3ccccc3)ccc(-c3ccccc3)c21
inactive: [12] 95 % of control | endpoint: mean survival time, dose: 200.0 mg/kg/injection, schedule: Q01DX001 (ip), vehicle: saline with Tween-80 95 % of control | endpoint: mean survival time, dose: 400.0 mg/kg/injection, schedule: Q01DX001 (ip), vehicle: saline with Tween-80 95 % of control

Cc1ccc(S(=O)(=O)N=P(c2ccccc2)(c2ccccc2)c2ccccc2)cc1
inactive: [3] 93 % of control and 94 % of control | [4] 88 % of control | [5] 91 % of control and 93 % of control

O=Cc1ccccc1O
inactive: endpoint: mean survival time, dose: 100.0 mg/kg/injection, schedule: Q04DX002 (ip), vehicle: saline 93 % of control

CC1(C)CC(=O)C2=C(C1)OC1(O)CC(C)(C)CC(=O)C1C2c1ccccc1[N+](=O)[O-] (stereo not given)
inactive: endpoint: mean survival time, dose: 3.13 mg/kg/injection, schedule: Q01DX001 (ip), vehicle: saline with Tween-80 103 % of control | endpoint: mean survival time, dose: 3.13 mg/kg/injection, schedule: Q01DX009 (ip), vehicle: saline with Tween-80 100 % of control | endpoint: mean survival time, dose: 6.25 mg/kg/injection, schedule: Q01DX001 (ip), vehicle: saline with Tween-80 90 % of control | endpoint: mean survival time, dose: 6.25 mg/kg/injection, schedule: Q01DX009 (ip), vehicle: saline with Tween-80 107 % of control | endpoint: mean survival time, dose: 12.5 mg/kg/injection, schedule: Q01DX001 (ip), vehicle: saline with Tween-80 97 % of control | endpoint: mean survival time, dose: 12.5 mg/kg/injection, schedule: Q01DX009 (ip), vehicle: saline with Tween-80 97 % of control | [12] 87 % of control

CCC(CO)[N-]CC[N-]C(CC)CO.[Cl][Pt+2][Cl] (stereo not given)
inactive: endpoint: median survival time, dose: 6.25 mg/kg/injection, schedule: Q04DX003 (ip), vehicle: saline 101 % of control | endpoint: median survival time, dose: 12.5 mg/kg/injection, schedule: Q04DX003 (ip), vehicle: saline 107 % of control | endpoint: median survival time, dose: 25.0 mg/kg/injection, schedule: Q04DX003 (ip), vehicle: saline 109 % of control | endpoint: median survival time, dose: 50.0 mg/kg/injection, schedule: Q04DX003 (ip), vehicle: saline 121 % of control

C/C=C(/C(=O)OC)c1ccc([N+](=O)[O-])cc1
inactive: [3] 94 % of control | [1] 92 % of control | [4] 95 % of control | [2] 94 % of control | [5] 94 % of control | [6] 92 % of control
